Experimental data reported in PubChem BioAssay (NCI).
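Cells were grown in 96-well plates and exposed to each compound for 48 hours at five concentrations; endpoints were interpolated linearly between bracketing concentrations, or set to the highest concentration if not reached. At the GI50, growth is halved. The concentration for full growth arrest is given as TGI.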

Experiments:
Assay in all cases: growth of human tumour cells (NCI), 48 h
786-0 renal = tested on: 786-0 renal
A498 renal = tested on: A498 renal
A549 NSCLC = tested on: A549 NSCLC
ACHN renal = tested on: ACHN renal
BT-549 breast = tested on: BT-549 breast
CAKI-1 renal = tested on: CAKI-1 renal
CCRF-CEM leukemia = tested on: CCRF-CEM leukemia
COLO 205 colon = tested on: COLO 205 colon
DU-145 prostate = tested on: DU-145 prostate
EKVX NSCLC = tested on: EKVX NSCLC
HCC-2998 colon = tested on: HCC-2998 colon
HCT-116 colon = tested on: HCT-116 colon
HCT-15 colon = tested on: HCT-15 colon
HL-60(TB) leukemia = tested on: HL-60(TB) leukemia
HOP-62 NSCLC = tested on: HOP-62 NSCLC
HOP-92 NSCLC = tested on: HOP-92 NSCLC
HS 578T breast = tested on: HS 578T breast
HT29 colon = tested on: HT29 colon
IGROV1 ovarian = tested on: IGROV1 ovarian
K-562 leukemia = tested on: K-562 leukemia
KM12 colon = tested on: KM12 colon
LOX IMVI melanoma = tested on: LOX IMVI melanoma
M14 melanoma = tested on: M14 melanoma
MALME-3M melanoma = tested on: MALME-3M melanoma
MCF7 breast = tested on: MCF7 breast
MDA-MB-231 breast = tested on: MDA-MB-231 breast
MDA-MB-435 = tested on: MDA-MB-435
MOLT-4 leukemia = tested on: MOLT-4 leukemia
NCI-H226 lung = tested on: NCI-H226 lung
NCI-H23 lung = tested on: NCI-H23 lung
NCI-H460 lung = tested on: NCI-H460 lung
NCI-H522 lung = tested on: NCI-H522 lung
NCI/ADR-RES ovarian = tested on: NCI/ADR-RES ovarian
OVCAR-3 ovarian = tested on: OVCAR-3 ovarian
OVCAR-4 ovarian = tested on: OVCAR-4 ovarian
OVCAR-5 ovarian = tested on: OVCAR-5 ovarian
OVCAR-8 ovarian = tested on: OVCAR-8 ovarian
PC-3 prostate = tested on: PC-3 prostate
RPMI-8226 leukemia = tested on: RPMI-8226 leukemia
RXF 393 renal = tested on: RXF 393 renal
SF-268 CNS = tested on: SF-268 CNS
SF-295 CNS = tested on: SF-295 CNS
SF-539 CNS = tested on: SF-539 CNS
SK-MEL-2 melanoma = tested on: SK-MEL-2 melanoma
SK-MEL-28 melanoma = tested on: SK-MEL-28 melanoma
SK-MEL-5 melanoma = tested on: SK-MEL-5 melanoma
SK-OV-3 ovarian = tested on: SK-OV-3 ovarian
SN12C renal = tested on: SN12C renal
SNB-19 CNS = tested on: SNB-19 CNS
SNB-75 CNS = tested on: SNB-75 CNS
SR leukemia = tested on: SR leukemia
SW-620 colon = tested on: SW-620 colon
T-47D breast = tested on: T-47D breast
TK-10 renal = tested on: TK-10 renal
U251 CNS = tested on: U251 CNS
UACC-257 melanoma = tested on: UACC-257 melanoma
UACC-62 melanoma = tested on: UACC-62 melanoma
UO-31 renal = tested on: UO-31 renal

## CCSc1ccc2c(c1)N(CCCN1CCN(C)CC1)c1ccccc1S2
786-0 renal
  GI50: 2.61 µM
  TGI: 7.6 µM
A498 renal
  GI50: 1.83 µM
  TGI: 10.2 µM
A549 NSCLC
  GI50: 3.21 µM
  TGI: 10.5 µM
ACHN renal
  GI50: 2.49 µM
  TGI: 6.83 µM
BT-549 breast
  GI50: 4.75 µM
  TGI: 18.9 µM
CAKI-1 renal
  GI50: 1.75 µM
  TGI: 4.19 µM
CCRF-CEM leukemia
  GI50: 2.56 µM
  TGI: 7.1 µM
COLO 205 colon
  GI50: 1.76 µM
  TGI: 3.37 µM
DU-145 prostate
  GI50: 3.82 µM
  TGI: 14.2 µM
EKVX NSCLC
  GI50: 6.04 µM
  TGI: 22.6 µM
HCC-2998 colon
  GI50: 1.7 µM
  TGI: 3.28 µM
HCT-116 colon
  GI50: 2.04 µM
  TGI: 4.4 µM
HCT-15 colon
  GI50: 2.06 µM
  TGI: 4.98 µM
HL-60(TB) leukemia
  GI50: 1.83 µM
  TGI: 4.61 µM
HOP-62 NSCLC
  GI50: 2.84 µM
  TGI: 8.15 µM
HOP-92 NSCLC
  GI50: 1.85 µM
  TGI: 7.06 µM
HS 578T breast
  GI50: 2 µM
  TGI: 5.56 µM
HT29 colon
  GI50: 1.81 µM
  TGI: 3.44 µM
IGROV1 ovarian
  GI50: 2.19 µM
  TGI: 5.41 µM
K-562 leukemia
  GI50: 2.39 µM
  TGI: > 100 µM
KM12 colon
  GI50: 1.87 µM
  TGI: 3.56 µM
LOX IMVI melanoma
  GI50: 1.67 µM
  TGI: 3.16 µM
M14 melanoma
  GI50: 1.88 µM
  TGI: 3.67 µM
MALME-3M melanoma
  GI50: 1.58 µM
  TGI: 3.35 µM
MCF7 breast
  GI50: 1.79 µM
  TGI: 3.43 µM
MDA-MB-231 breast
  GI50: 2 µM
  TGI: 4.95 µM
MDA-MB-435
  GI50: 1.72 µM
  TGI: 3.47 µM
MOLT-4 leukemia
  GI50: 2.64 µM
  TGI: 6.53 µM
NCI-H226 lung
  GI50: 7.17 µM
  TGI: 27.5 µM
NCI-H23 lung
  GI50: 6.58 µM
  TGI: 21.3 µM
NCI-H460 lung
  GI50: 1.87 µM
  TGI: 3.53 µM
NCI-H522 lung
  GI50: 1.7 µM
  TGI: 3.5 µM
NCI/ADR-RES ovarian
  GI50: 3.68 µM
  TGI: 16.8 µM
OVCAR-3 ovarian
  GI50: 2.48 µM
  TGI: 7.12 µM
OVCAR-4 ovarian
  GI50: 3.63 µM
  TGI: 12.3 µM
OVCAR-5 ovarian
  GI50: 2.19 µM
  TGI: 6.44 µM
OVCAR-8 ovarian
  GI50: 4.39 µM
  TGI: 10.9 µM
PC-3 prostate
  GI50: 2.74 µM
  TGI: 9.64 µM
RPMI-8226 leukemia
  GI50: 2.46 µM
  TGI: 6.96 µM
RXF 393 renal
  GI50: 2.82 µM
  TGI: 8.88 µM
SF-268 CNS
  GI50: 3.96 µM
  TGI: 16.9 µM
SF-295 CNS
  GI50: 2.2 µM
  TGI: 5.97 µM
SF-539 CNS
  GI50: 1.83 µM
  TGI: 3.76 µM
SK-MEL-2 melanoma
  GI50: 3.25 µM
  TGI: 8.49 µM
SK-MEL-28 melanoma
  GI50: 1.73 µM
  TGI: 3.27 µM
SK-MEL-5 melanoma
  GI50: 1.73 µM
  TGI: 3.16 µM
SK-OV-3 ovarian
  GI50: 10.4 µM
  TGI: 24 µM
SN12C renal
  GI50: 4.54 µM
  TGI: 18.4 µM
SNB-19 CNS
  GI50: 3.16 µM
  TGI: 12 µM
SNB-75 CNS
  GI50: 1.79 µM
  TGI: 5.5 µM
SR leukemia
  GI50: 2.71 µM
  TGI: 8.65 µM
SW-620 colon
  GI50: 1.88 µM
  TGI: 3.65 µM
T-47D breast
  GI50: 2.17 µM
  TGI: 5.79 µM
TK-10 renal
  GI50: 1.73 µM
  TGI: 3.27 µM
U251 CNS
  GI50: 2.05 µM
  TGI: 4.64 µM
UACC-257 melanoma
  GI50: 1.81 µM
  TGI: 3.48 µM
UACC-62 melanoma
  GI50: 1.67 µM
  TGI: 3.34 µM
UO-31 renal
  GI50: 2.1 µM
  TGI: 10.1 µM
